Assay results: publication PMC4434909, “In vitro properties of designed antimicrobial peptides that exhibit potent antipneumococcal activity and produces synergism in combination with penicillin” (Scientific Reports, 2015)

Legend:
PRSP, PISP, and PSSP = type: cell-based, Streptococcus pneumoniae; conditions: 30 min post treatment, 2× MIC, 5 × 10^6 CFU/ml in CAMHB, plate count, relative to untreated control
Procedure: This assay was performed to evaluate the killing kinetics of peptides. One PRSP, PISP, and PSSP isolate were each grown and prepared to 5 × 10^6 CFU/ml. Each isolate in CAMHB was challenged with peptides at two times the respective MIC values. At the indicated time intervals (0, 30, 60, 120, 150, 180, 210, and 240 min; “0” indicate pretreatment), 10 μl of suspension was removed and immediately serially diluted in cold phosphate-buffered saline to arrest further reaction before spread-plated on MHA to obtain viable colony counts. The percentage cell recovered was calculated by dividing the surviving CFU of the treated cells over the surviving CFU of the untreated control cells at the respective time points. Results were pooled from three independent experiments and expressed as mean ± standard deviation (SD).

human erythrocytes = assay: Hemolytic activity; type: cell-based
Procedure: Hemolytic assay was performed as described. Freshly drawn human erythrocytes were rinsed three times with PBS and resuspended in PBS to 4% (v/v). One hundred microliters of the suspension was added to 96-well microtiter plate containing equal volume of peptides to give final concentrations of peptides encompassing the range of 1.96–250 μg/ml. PBS and 0.1% (v/v) Triton-X 100 were used as 0% and 100% hemolytic control respectively. Plates were incubated at 37°C for 1 hr. Subsequently, the plate was centrifuged and the supernatant was transferred to a new plate. The release of hemoglobin in the supernatant was monitored at absorbance of 450 nm using Glomax Multidetection system (Promega, USA). Results were pooled from three independent experiments and expressed as mean ± SD. HC10 and HC50 were defined as the peptide concentrations causing 10% and 50% hemolysis on human erythrocytes, respectively. Hmax was the percentage hemolysis observed at the maximum concentration as defined throughout this study (all peptides 250 μg/ml, PEN 4 μg/ml).

A549 cell line = assay: Cytotoxicity against human cell lines (CellTiter 96 AQueous); type: cell-based
Procedure: (§1) Both the NL20 human lung bronchial normal epithelial cell line and the A549 human lung alveolar adenocarcinoma epithelial cell line were used for cell cytotoxicity tests. Besides investigating the cytotoxicity of peptides, differences in cell viability between the two cell lines can be used to evaluate the cell line selectivity and to assess potential anticancer potential of the peptides. NL20 cell line was grown in Ham's F12 medium and A549 cell line was grown in Roswell Park Memorial Institute medium. Both media were supplemented with fetal bovine serum to 10% (v/v) as growth medium or 2% (v/v) as maintenance medium in cell cytotoxicity testing. The assay was performed as described by Lee et al.[26]. NL20 cells was seeded overnight at 3 × 10^4 cells/well in 96-well cell culture-treated flat bottom microtiter plate and treated with serial dilutions of peptide at a final concentration of 1.95–250 μg/ml. PEN was tested from 0.03–4 μg/ml, the same range used to classify the susceptibility of pneumococcal isolates in this study. Test using A549 cells followed the same procedures with 1 × 10^4 cells/well. Plates were incubated at 37°C under 5% CO2 for 24, 48, and 72 hrs. Cell viability was detected by using CellTiter 96® AQueous Non-Radioactive Cell Proliferation assay (Promega, USA) and the colorimetric changes were read with Glomax multidetection system (Promega, USA) at OD 490 nm. Results were pooled from three independent experiments and expressed as mean ± SD. […] Imax was the percentage of cell viable treated with peptides/PEN at the maximum concentration as defined throughout this study (all peptides 250 μg/ml, PEN 4 μg/ml).

NL20 cell line = assay: as above; type: cell-based
Procedure: as §1

Substance: penicillin [reference compound]
- CFU recovered (viability), all three groups of pneumococci (PRSP, PISP, and PSSP): 60–78%
- HC10 (human erythrocytes): >4 µg/mL
- HC50 (human erythrocytes): >4 µg/mL
- IC50, A549 cell line, 24 hrs (A549 cell line): >4 µg/mL
- IC50, A549 cell line, 48 hrs (A549 cell line): >4 µg/mL
- IC50, A549 cell line, 72 hrs (A549 cell line): >4 µg/mL
- IC50, NL20 cell line, 24 hrs (NL20 cell line): >4 µg/mL
- IC50, NL20 cell line, 48 hrs (NL20 cell line): >4 µg/mL
- IC50, NL20 cell line, 72 hrs (NL20 cell line): >4 µg/mL
- Imax, NL20 cell line, 24 hrs (NL20 cell line): 105.2 ± 0.2%
- Imax, NL20 cell line, 48 hrs (NL20 cell line): 106.1 ± 6.2%
- Imax, NL20 cell line, 72 hrs (NL20 cell line): 88.3 ± 0.4%
